# Source: patent publication US20230080670A1, “METHODS AND COMPOSITIONS FOR TREATING TUMORS USING TRANSCRIPTION INHIBITION AND DNA DAMAGE” (ARIZONA BOARD OF REGENTS ON BEHALF OF THE UNIVERSITY OF …, priority 2019, published 2023)
# “Also recorded” adds a separate entry of the source.
# Key:
# gammaH2Ax [1] = test: Western blot of gammaH2Ax DNA damage response, A673 cells; assay type: cell-based
# A673 cells = test: MTT cell survival assay, A673 Ewing's sarcoma cell line; assay type: cell-based; details: 96 hours
# Experimental: It was tested whether the functional interaction of EWS or FUS with the fusion protein driving Ewing's sarcoma would make these cells exceptionally sensitive to transcription inhibitors.
# The DNA damage agent SN38 and the transcription inhibitor flavopiridol were titrated, and cell survival was measured after 96 hours using an MTT assay (see FIG. 3A).
# gammaH2Ax [2] = test: Western blot of gammaH2Ax DNA damage response, HEK293 cells; assay type: cell-based; details: flavopiridol added to SN38, 24 hours
# Experimental: All doses shown are in nanomolar, nM.
# Western blot analysis: Protein lysates concentrations were quantified using BCA Protein Assay (Pierce). 5-10 ug of protein sample was loaded onto 7.5% SDS-PAGE gels. Standard western blot protocols were followed. Blots were transferred at 500 mA, blocked in 5% nonfat dried milk in TBS-T, and incubated overnight with primary antibody at 4° C. Blots were washed in TBS-T, incubated in secondary antibody for 1 hour at room temperature, washed again in TBS-T, and imaged after the addition of SuperSignal™ West Pico PLUS Chemiluminescent substrate (Thermo Scientific). Western blots were imaged on the ChemiDoc.
# patients = details: therapeutic doses; cited from earlier work
smiles,measurement,setting,value
CCc1c2c(nc3ccc(O)cc13)-c1cc3c(c(=O)n1C2)COC(=O)[C@]3(O)CC [SN38],gammaH2Ax DNA damage response,"gammaH2Ax [1]; SN38 for 24 hours without transcription inhibitor, Ewing's sarcoma cell line",standard DNA damage response
same,"toxicity (cell survival, MTT assay)",A673 cells; 1.3 nM SN38 alone,No toxicity
CN1CC[C@H](c2c(O)cc(O)c3c(=O)cc(-c4ccccc4Cl)oc23)[C@H](O)C1 [flavopiridol],inhibition of the gamma H2Ax response to DNA damage (quantification of western blots),"gammaH2Ax [1]; A673 cells, 10 nM, 50 nM and 100 nM flavopiridol",dose-dependent inhibition
same,effect on phosphorylation of histone to gammaH2Ax (DNA damage response),"gammaH2Ax [1]; transcription inhibitor added to SN38, 24 hours, Ewing's sarcoma cell line",prevented this event
same,effect on gammaH2Ax response to DNA damage,gammaH2Ax [2],does not prevent the normal cellular response to DNA damage; also recorded: had no such effect
same,toxicity in patients,patients,significant toxicity
same,"toxicity (cell survival, MTT assay)",A673 cells; 100 nM flavopiridol alone,No toxicity
